Columns and labels:
[1] = test system: HCV genotype 2a infectious clone; test: HCV genotype 2a infectious clone assay (Renilla luciferase); type: cell-based; settings: % replication activity of control with no test compound; for activity at 5 µM: Hepatitis C virus, read-out: 2a (% activity @ 5 μM), 5 μM
Procedure: The assays in parts A and B were used to generate the genotype 1b inhibitory activity and related cell toxicity (viability) data supported herein. This assay has been used to generate the genotype 2a inhibitory activity data supported herein.
(§1) 1) Wash cells once with PBS, trypsinize. […] Mix twice by pipeting. […] Make a common stock from all tubes. […] 15) Incubate for 24 hr before treatment.
(§2) 3) Repeat daily for 2 more days.

Huh7.5 cells = settings: human, 3 days
Procedure: as §1, §2
1) Alamar blue assay—a) Include medium for background subtraction (and also for seeing change in color easily). b) Aspirate medium. c) Make a stock of medium plus 10% Alamar blue. Total volume per well is 100 μl. d) Incubate for 2-2.5 hrs at 37° C. (or until there is a color change). c) Read plates at flex station.

Huh7 cell line = test: MTT assay for HCV replicon reporter cell lines (cell toxicity); type: cell-based; settings: Homo sapiens, Huh-7; cell toxicity, MTT, top concentration 25 μM; read-out: Cell Viability EC50
HCV 1b RNA replicon = test: Luciferase assay for HCV genotype 1b replicon reporter cell lines; settings: Hepatitis C virus, Huh-7, 48 h, read-out: 1b EC50, 1b replicon, Huh7, 48 hours, top concentration 25 μM
hERG channel = target: T1, hERG channel (Homo sapiens, UniProt Q12809); test: HERG channel assay (whole cell patch clamp, CHO cells); type: cell-based; settings: CHO cells expressing hERG, tail current
T1 construct: host or cells: CHO (Chinese Hamster Ovary), stably transfected
T1 sequence (Q12809 whole entry): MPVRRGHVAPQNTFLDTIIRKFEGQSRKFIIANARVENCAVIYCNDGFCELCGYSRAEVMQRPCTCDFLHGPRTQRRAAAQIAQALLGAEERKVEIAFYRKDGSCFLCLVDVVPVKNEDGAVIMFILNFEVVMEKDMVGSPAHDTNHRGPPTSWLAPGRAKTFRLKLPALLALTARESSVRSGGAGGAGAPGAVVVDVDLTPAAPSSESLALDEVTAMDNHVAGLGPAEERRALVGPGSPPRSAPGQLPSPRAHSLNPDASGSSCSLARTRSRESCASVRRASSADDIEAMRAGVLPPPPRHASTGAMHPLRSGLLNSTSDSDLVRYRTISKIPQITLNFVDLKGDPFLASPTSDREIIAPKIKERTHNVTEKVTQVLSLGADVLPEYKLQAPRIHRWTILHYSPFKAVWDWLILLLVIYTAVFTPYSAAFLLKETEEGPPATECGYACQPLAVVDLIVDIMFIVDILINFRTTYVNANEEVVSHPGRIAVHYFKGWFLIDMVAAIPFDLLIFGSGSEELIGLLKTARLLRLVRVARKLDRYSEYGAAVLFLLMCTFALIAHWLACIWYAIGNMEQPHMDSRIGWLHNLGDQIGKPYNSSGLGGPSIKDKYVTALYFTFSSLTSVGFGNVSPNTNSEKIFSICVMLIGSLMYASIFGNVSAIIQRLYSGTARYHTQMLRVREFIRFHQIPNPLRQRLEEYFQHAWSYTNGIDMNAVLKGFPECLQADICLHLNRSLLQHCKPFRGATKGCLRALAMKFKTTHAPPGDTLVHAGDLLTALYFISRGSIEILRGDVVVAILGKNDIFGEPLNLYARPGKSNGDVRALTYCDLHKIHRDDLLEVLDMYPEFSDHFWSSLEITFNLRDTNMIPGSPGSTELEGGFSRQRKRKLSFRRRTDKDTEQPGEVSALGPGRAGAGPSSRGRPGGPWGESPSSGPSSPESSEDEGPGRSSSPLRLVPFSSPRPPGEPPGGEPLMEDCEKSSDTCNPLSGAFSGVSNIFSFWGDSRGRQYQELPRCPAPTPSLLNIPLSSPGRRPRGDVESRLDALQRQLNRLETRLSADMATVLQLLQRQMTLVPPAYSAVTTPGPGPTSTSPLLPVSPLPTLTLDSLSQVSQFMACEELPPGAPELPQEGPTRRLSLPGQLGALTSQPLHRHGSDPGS
Procedure: Solutions: For electrophysiological recordings, the following solutions were used. External Solution: 2 mM CaCl2; 2 mM MgCl2; 4 mM KCl; 150 mM NaCl; 10 mM Glucose; 10 mM HEPES; 310-320 mOsm; pH 7.4 (adjusted with 1M NaOH). Internal Solution: 140 mM KCl; 10 mM MgCl2; 6 mM EGTA; 5 mM HEPESNa; […]; 300-320 mOsm; pH 7.25 (adjusted with 1M KOH).
Next, 1 μM cisapride (positive control) was added.
Data Analysis: Data analysis was performed using DataXpress (Axon Instruments), Clampfit (Axon Instruments) and Origin (Originlab Corporation) software.
In addition, activity against hERG potassium channel was tested on representative compounds. […] Compounds having a structure similar to that of EBP288 (compounds that contain, in R3, an N-attached heterocycle where substitutions adjacent to the nitrogen are small) should have a similar activity in this assay. […] Compounds having a structure similar to the aforementioned compound (compounds that contain, in R3, a C-attached heterocycle where heteroatom is acylated N) should have a similar activity in this assay. Generally, compounds that show no or only low activity in the hERG assay are preferred.

Row | SMILES | activity at 5 µM [1] | 2a cell viability (@ 5 μM) (Huh7.5 cells) | EC50 (Huh7 cell line) | EC50 (HCV 1b RNA replicon) | IC50 (hERG channel) | 2a (% activity @ 5 μM) ([1]; 5 μM)
1 | COc1ccc(Cn2nc(OCCCN3CCCC3)c3ccccc32)cc1 [EBP327] | 89% | 98% |  |  |  | 
2 | OC[C@@H]1CCCN1CCCOc1nn(Cc2ccc(Cl)cc2)c2ccccc12 [EBP383] | 35% | 100% | > 25 µM | 4.2 µM | 0.9 µM | 
3 | Clc1ccc(Cn2nc(OCCCN3CCC[C@H]3CNc3ccccc3)c3ccccc32)cc1 [EBP524] |  |  | > 25 µM | 8.3 µM | 2.6 µM | 
4 | Clc1ccc(Cn2nc(OCCCN3CCCC3c3ccccc3)c3ccccc32)cc1 (stereo not drawn) [EBP387] | 35% | 100% | > 25 µM | 6.4 µM | 3.3 µM | 
5 | O[C@H]1CCN(CCOc2nn(Cc3ccc(Cl)cc3)c3ccccc23)C1 [EBP400] | 84% | 100% |  |  |  | 
6 | COc1ccc(Cn2nc(OCCCN3CCCCC3)c3ccccc32)cc1 [EBP328] | 71% | 100% |  |  |  | 
7 | COC(=O)[C@@H]1CC[C@H](O)N1CCCOc1nn(Cc2ccc(Cl)cc2)c2ccccc12 [EBP507] | 87% | 90% |  |  |  | 
8 | c1ccc(Cn2nc(OCCCN3CCCCC3)c3ccccc32)cc1 [EBP192] | 50% | 88% |  |  |  | 
9 | O[C@@H]1CCN(CCCOc2nn(Cc3ccc(Cl)cc3)c3ccccc23)C1 [EBP393] | 42% | 100% | > 25 µM | 4.5 µM | 0.9 µM | 
10 | Clc1ccc(Cn2nc(OCCCN3CCCCCC3)c3ccccc32)cc1 [EBP397] | 14% | 100% | > 25 µM | 2.8 µM |  | 
11 | COc1ccc(COc2nn(Cc3ccc(OC)cc3)c3ccccc23)cc1 [EBP330] | 75% | 100% |  |  |  | 
12 | Clc1cccc(Cn2nc(OCCN3CCCC3)c3ccccc32)c1 [EBP334] | 69% | 100% |  |  |  | 
13 | Cc1ccc2c(c1)c(OCCN(C)C)nn2Cc1ccccc1 [EBP182] | 82% | 100% |  |  |  | 
14 | O[C@H]1CC[C@H](O)N1CCCOc1nn(Cc2ccc(Cl)cc2)c2ccccc12 [EBP515] |  |  | > 25 µM | 4.9 µM | 2.6 µM | 
15 | Cc1ccc2c(c1)c(OCCN1CCCC1)nn2Cc1ccccc1 [EBP181] | 58% | 100% |  |  |  | 
16 | c1ccc2c(c1)c(OCCN1CCCC1)nn2Cc1ccncc1 [EBP357] | 77% | 94% |  |  |  | 
17 | CCOC(=O)[C@@H]1CCCN1CCCOc1nn(Cc2ccc(Cl)cc2)c2ccccc12 [EBP512] | 78% | 100% |  |  |  | 
18 | COC(=O)c1cccc(Cn2nc(OCCN3CCCC3)c3ccccc32)c1 [EBP338] | 79% | 100% |  |  |  | 
19 | C[C@H]1CCCN1CCCOc1nn(Cc2ccc(Cl)cc2)c2ccccc12 [EBP391] | 35% | 100% | > 25 µM | 4 µM | 0.23 µM | 
20 | CC(C)(C)OC(=O)N1CCC(Cn2nc(OCCN3CCCC3)c3ccccc32)CC1 [EBP340] | 62% | 98% |  |  |  | 
21 | c1ccc2c(c1)c(OCCN1CCCC1)nn2CC1CCCNC1 (stereo not drawn) [EBP360] | 80% | 92% |  |  |  | 
22 | Cc1ccc(Cn2nc(OCCN3CCCC3)c3ccccc32)cc1 [EBP335] | 73% | 10% |  |  |  | 
23 | NC(=O)[C@@H]1CCCN1CCCOc1nn(Cc2ccc(Cl)cc2)c2ccccc12 [EBP385] | 75% | 100% |  |  |  | 
24 | c1ccc(Cn2nc(OCCN3CCCCC3)c3ccccc32)cc1 [EBP175] | 89% | 98% |  |  |  | 
25 | Cc1ccc2c(c1)c(OCCCN(C)C)nn2Cc1ccccc1 [EBP151] | 62% | 92% |  |  |  | 
26 | c1ccc(Cn2nc(OCCCN3CCCC3)c3ccccc32)cc1 [EBP177] | 53% | 100% |  |  |  | 

Row | SMILES | activity at 5 µM [1] | 2a cell viability (@ 5 μM) (Huh7.5 cells) | EC50 (Huh7 cell line) | EC50 (HCV 1b RNA replicon) | IC50 (hERG channel) | 2a (% activity @ 5 μM) ([1]; 5 μM)
27 | COC(=O)C1CCCCN1CCCOc1nn(Cc2ccc(Cl)cc2)c2ccccc12 (stereo not drawn) [EBP505] | 87% | 94% |  |  |  | 
28 | Cc1ccc2c(c1)c(OCCCN1CCCC1)nn2Cc1ccccc1 [EBP178] | 25% | 92% |  |  |  | 
29 | Cc1ccc2c(c1)c(OCCN1CCCCC1)nn2Cc1ccccc1 [EBP176] | 58% | 98% |  |  |  | 
30 | Clc1ccc(Cn2nc(OCC3CCNCC3)c3cc(Cl)ccc32)cc1 [EBP640] |  |  | > 25 µM | 5 µM | 5.3 µM | 
31 | Clc1ccc(Cn2nc(OCCN3CCCC3)c3ccccc32)cc1 [EBP333] | 56% | 97% |  |  |  | 
32 | Clc1ccc(Cn2nc(OCCN3CCC[C@H]3CN3CCCC3)c3ccccc32)cc1 [EBP403] | 50% | 97% | > 25 µM | 3.8 µM |  | 
33 | CN(C)CCOc1nn(CCc2ccc(Cl)cc2)c2ccccc12 [EBP332] | 66% | 100% |  |  |  | 
34 | Clc1ccc(Cn2nc(OCCCCN3CCCC3)c3ccccc32)cc1 [EBP548] |  |  | > 25 µM | 3.2 µM |  | 
35 | c1ccc2c(c1)c(OCCN1CCCC1)nn2CC1CCCCC1 [EBP339] | 69% | 100% |  |  |  | 
36 | C[C@H]1CCCN1CCCOc1nn(Cc2ccc(Cl)cc2)c2ccccc12 [EBP389] |  |  |  |  |  | 44%
37 | C[C@@H]1CCCN1CCCOc1nn(Cc2ccc(Cl)cc2)c2ccc(Cl)cc12 [EBP645] |  |  | > 25 µM | 8 µM |  | 
38 | c1cncc(Cn2nc(OCCN3CCCC3)c3ccccc32)c1 [EBP356] | 68% | 95% |  |  |  | 
39 | COc1ccc(-c2ccc3c(c2)c(OCCCN2CCC[C@@H]2C)nn3Cc2ccc(Cl)cc2)cn1 [EBP902] |  |  | > 25 µM | 8.3 µM |  | 
40 | C[C@H](COc1nn(Cc2ccc(Cl)cc2)c2ccccc12)CN1CCC[C@H]1CO [EBP454] | 69% | 93% |  |  |  | 
41 | Clc1ccc(Cn2nc(OCCCN3CCCC3)c3ccccc32)cc1 [EBP288] | 24% | 89% | > 25 µM | 3.7 µM | 1 µM | 
42 | O=C(O)C[C@@H]1CCCN1CCCOc1nn(Cc2ccc(Cl)cc2)c2ccccc12 [EBP508] | 77% | 100% |  |  |  | 
43 | C[C@H]1CCCN1CCCOc1nn(Cc2ccc(Cl)cc2)c2ccc(-c3cccnc3)cc12 [EBP897] |  |  | > 25 µM | 7.2 µM |  | 
44 | C[C@H]1CCCN1CCCOc1nn(Cc2ccc(Cl)cc2)c2ccc(N(C)Cc3ccccc3)cc12 [EBP924] |  |  | > 25 µM | 5.7 µM |  | 
45 | Clc1ccc(Cn2nc(OCCCN3CCC[C@H]3CN3CCCC3)c3ccccc32)cc1 [EBP395] | 41% | 89% | > 25 µM | 4.4 µM | 2 µM | 
46 | OC[C@H]1CCCN1CCCOc1nn(Cc2ccc(Cl)cc2)c2ccccc12 [EBP516] |  |  | > 25 µM | 4.7 µM | 0.81 µM | 
47 | CCN(CC)c1ccc2c(c1)c(OCCCN1CCCC1)nn2Cc1ccc(Cl)cc1 [EBP534] |  |  | > 25 µM | 3.3 µM | 2.8 µM | 
48 | C[C@@H](COc1nn(Cc2ccc(Cl)cc2)c2ccccc12)CN1CCC[C@H]1CO [EBP449] | 83% | 99% |  |  |  | 
49 | OCC1CCCCN1CCCOc1nn(Cc2ccc(Cl)cc2)c2ccc(Cl)cc12 (stereo not drawn) [EBP503] | 36% | 86% | > 25 µM | 7.2 µM |  | 
50 | C[C@H]1CCCN1CCCOc1nn(Cc2ccc(Cl)cc2)c2ccc(N(C)c3ccccc3)cc12 [EBP925] |  |  | > 25 µM | 5.7 µM |  | 
51 | CC(C)c1ccc(Cn2nc(OCCN3CCCC3)c3ccccc32)cc1 [EBP336] | 38% | 95% | > 25 µM | 5.1 µM |  | 
